Test system: Caspase 3 (CASP3)
Test: Caspase 3 activity under BFA-induced endoplasmic reticulum stress in HEKa (Caspase-Glo 3/7)
Type: cell-based, human
Conditions: BFA-induced ER stress, 24 h, vs BFA-treated cells (Figure 5)
Procedure: Caspase 3 (CASP3) is a protein member of the cysteine-aspartic acid protease family. Sequential activation of caspases plays a central role in the execution-phase of cell apoptosis. It was evaluated the effect of the cycled peptide B on the caspase 3 activity in human epidermal keratinocytes from adult (HEKa) subjected to endoplasmic reticulum (ER) stress.
HEKa cells were seeded in a black 96-well plate at a density of 18.000 cell/well in Dermal Cell Basal Medium (DCBM) and incubated at 37 °C in a humidified atmosphere with 5% CO2. After 24 h of incubation, cells were treated with 0.15 µg/mL BFA alone or in the presence of 0.005 mg/mL of the cycled peptide B and returned to the incubator for 24 h more. Untreated cells (Basal) were used as negative control samples. 24 hours after treatment, caspase 3 activity was evaluated using Caspase-Glo® 3/7 Assay System, following manufacturer instructions.
Each condition was performed at least in triplicates (n=3) in three independent experiments (N=3). For all data, mean values of relative fluorescence units (RFU) of the different experiments and SEM values are shown. All data was normalized as follows: % vs BFA = (RFU treated cells)/(RFU BFA treated cells) × 100 [formula]
Statistical data analysis was performed using Student t-test by comparison of % activity from test substance vs BFA-treated cells, *p<0.05, **p<0.01, ***p<0.001.

- caspase 3 activity: significantly reduce
Structure (SMILES): CC(C)C[C@@H]1NC(=O)[C@H](C)NC(=O)[C@H](Cc2c[nH]cn2)NC(=O)[C@H](Cc2c[nH]c3ccccc23)NC(=O)[C@H](Cc2ccccc2)NC(=O)[C@H](CCCNC(=N)N)NC1=O [Peptide B, cyclo-Phe-Trp- His- Ala-Leu-Arg]

Source: EP4417190A1, “CYCLIC PEPTIDES WITH ANTI-AGING EFFICACY” (Lipotrue, S.L., priority 2023, dated 2024)
